Experimental data as given in patent US9145392B2, “Imidazole amines as modulators of kinase activity” (Merck Patent GmbH, priority 2011, dated 2015).
pIC50: −log10 of the molar value.

What was measured:
P70S6K (T412E mutant) = P70S6K (T412E mutant) (Homo sapiens (Human), UniProt P23443, T412E); test: P70S6K enzyme assay; type: biochemical; details: read-out: IC50 p70S6K
How it was run: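 Phosphorylated product and substrate peptide separated by microfluidic capillary electrophoresis (Caliper LabChip 3000), product peaks resolving before substrate.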

His-AKT (Full Length) = His-AKT (Full Length) (Homo sapiens (Human), UniProt P31749); test: AKT enzyme assay; type: biochemical; details: read-out: IC50 AKT
Sequence of His-AKT (Full Length) (P31749 whole entry): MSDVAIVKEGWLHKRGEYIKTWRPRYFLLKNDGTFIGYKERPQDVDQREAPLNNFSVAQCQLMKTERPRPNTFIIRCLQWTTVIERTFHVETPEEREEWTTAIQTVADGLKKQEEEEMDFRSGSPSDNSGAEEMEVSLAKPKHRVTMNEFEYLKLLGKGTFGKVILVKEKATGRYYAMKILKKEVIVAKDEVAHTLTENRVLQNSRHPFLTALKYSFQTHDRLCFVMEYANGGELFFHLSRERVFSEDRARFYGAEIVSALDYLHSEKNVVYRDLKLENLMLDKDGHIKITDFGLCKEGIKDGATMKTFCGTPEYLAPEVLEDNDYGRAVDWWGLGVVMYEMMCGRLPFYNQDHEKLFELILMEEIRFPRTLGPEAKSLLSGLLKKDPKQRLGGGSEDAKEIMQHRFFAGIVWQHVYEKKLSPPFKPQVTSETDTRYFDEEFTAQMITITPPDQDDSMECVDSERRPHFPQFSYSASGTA

Sequence of P70S6K (T412E mutant) (P23443 whole entry T412E): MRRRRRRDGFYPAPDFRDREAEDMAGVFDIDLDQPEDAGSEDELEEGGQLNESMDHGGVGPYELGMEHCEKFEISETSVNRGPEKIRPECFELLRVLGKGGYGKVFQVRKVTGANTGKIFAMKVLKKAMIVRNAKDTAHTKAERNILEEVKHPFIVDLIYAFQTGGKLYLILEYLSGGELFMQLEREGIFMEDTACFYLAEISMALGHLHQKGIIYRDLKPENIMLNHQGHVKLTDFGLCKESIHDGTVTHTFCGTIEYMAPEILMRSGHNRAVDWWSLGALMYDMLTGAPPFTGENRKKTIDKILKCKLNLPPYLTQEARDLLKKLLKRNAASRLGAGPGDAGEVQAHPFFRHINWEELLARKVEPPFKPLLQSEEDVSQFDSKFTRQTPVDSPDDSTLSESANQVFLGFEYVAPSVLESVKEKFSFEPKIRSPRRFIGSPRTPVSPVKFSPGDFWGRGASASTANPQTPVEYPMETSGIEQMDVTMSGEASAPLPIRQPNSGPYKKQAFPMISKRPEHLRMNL

Row | pIC50 (P70S6K (T412E mutant)) | pIC50 (His-AKT (Full Length)) | Structure (SMILES)
1 | 8.77 | 7.60 | CCc1c(N)ncnc1N1CCC(c2nc(-c3ccc(C(F)(F)F)c(F)c3)cn2CCN2CC[C@@H](F)C2)CC1 [Compound 246]
2 | 8.26 | 6.28 | CCc1c(N)ncnc1N1CCC(c2nc(-c3ccc(C(F)(F)F)c(F)c3)cn2CCN2CCC(F)(F)CC2)CC1 [Compound 247]
3 | 7.80 | 6.00 | CCc1c(N)ncnc1N1CCC(c2nc(-c3ccc(C(F)(F)F)c(F)c3)cn2CCN2CCCC(F)(F)C2)CC1 [Compound 248]
4 | 8.00 | 7.07 | CCc1c(N)ncnc1N1CCC(c2nc(-c3ccc(C(F)(F)F)c(F)c3)cn2CCN2CCC(F)CC2)CC1 [Compound 249]
5 | 8.24 | 6.68 | CCc1c(N)ncnc1N1CCC(c2nc(-c3ccc(C(F)(F)F)c(F)c3)cn2CCN2CCCC(F)C2)CC1 (stereo not drawn) [Compound 250]
6 | 8.59 | 7.12 | CCc1c(N)ncnc1N1CCC(c2nc(-c3ccc(Cl)c(F)c3)cn2CCN2CCCC2)CC1 [Compound 251]
7 | 9.70 | 9.40 | CCc1c(N)ncnc1N1CCC(c2nc(-c3ccc(F)c(Cl)c3)cn2CCN2CCCC2)CC1 [Compound 252]
8 | 7.72 | 7.55 | Nc1ncnc(N2CCC(c3nc(-c4ccc(C(F)(F)F)c(F)c4)cn3CCN3CCCCC3)CC2)c1C1CCC1 [Compound 253]
9 | 8.09 | 8.04 | Nc1ncnc(N2CCC(c3nc(-c4ccc(C(F)(F)F)c(F)c4)cn3CCN3CCCC3)CC2)c1C1CCC1 [Compound 254]
10 | 8.16 | 8.03 | Nc1ncnc(N2CCC(c3nc(-c4ccc(F)c(F)c4)cn3CCN3CCCC3)CC2)c1C1CCC1 [Compound 255]
11 | 8.19 | 7.96 | Nc1ncnc(N2CCC(c3nc(-c4ccc(F)cc4)cn3CCN3CCCC3)CC2)c1C1CCC1 [Compound 256]
12 | 8.40 | 7.70 | Nc1ncnc(N2CCC(c3nc(-c4cccc(F)c4)cn3CCN3CCCC3)CC2)c1C1CCC1 [Compound 257]
13 | 7.44 | 6.42 | Nc1ncnc(N2CCC(c3nc(-c4ccc(C(F)(F)F)c(F)c4)cn3CCN3CCCC3)CC2)c1C1CCC1 [Compound 258]
14 | 7.43 | 6.37 | Nc1ncnc(N2CCC(c3nc(-c4ccc(C(F)(F)F)cc4)cn3CCN3CCCC3)CC2)c1C1CCC1 [Compound 259]
15 | 7.68 | 7.17 | Nc1ncnc(N2CCC(c3nc(-c4ccc(Cl)c(F)c4)cn3CCN3CCCC3)CC2)c1C1CCC1 [Compound 260]
16 | 8.20 | 8.09 | Nc1ncnc(N2CCC(c3nc(-c4cccc(C(F)(F)F)c4)cn3CCN3CCCC3)CC2)c1C1CCC1 [Compound 261]
17 | 8.40 | 8.31 | Nc1ncnc(N2CCC(c3nc(-c4ccc(F)c(Cl)c4)cn3CCN3CCCC3)CC2)c1C1CCC1 [Compound 262]
18 | 7.60 | 7.10 | Nc1ncnc(N2CCC(c3nc(-c4ccc(Cl)cc4)cn3CCN3CCCC3)CC2)c1C1CCC1 [Compound 263]
19 | 8.39 | 8.21 | Nc1ncnc(N2CCC(c3nc(-c4cccc(Cl)c4)cn3CCN3CCCC3)CC2)c1C1CCC1 [Compound 264]
20 | 8.21 | 6.96 | Nc1ncnc(N2CCC(c3nc(-c4ccc(C(F)(F)F)cc4)cn3CCN3CCCC3)CC2)c1Br [Compound 265]

Row | pIC50 (P70S6K (T412E mutant)) | pIC50 (His-AKT (Full Length)) | Structure (SMILES)
21 | 8.48 | 7.80 | Nc1ncnc(N2CCC(c3nc(-c4ccc(Cl)c(F)c4)cn3CCN3CCCC3)CC2)c1Br [Compound 266]
22 | 8.66 | 8.38 | Nc1ncnc(N2CCC(c3nc(-c4cccc(C(F)(F)F)c4)cn3CCN3CCCC3)CC2)c1Br [Compound 267]
23 | 8.85 | 8.74 | Nc1ncnc(N2CCC(c3nc(-c4ccc(F)c(Cl)c4)cn3CCN3CCCC3)CC2)c1Br [Compound 268]
24 | 8.00 | 6.72 | C=Cc1c(N)ncnc1N1CCC(c2nc(-c3ccc(C(F)(F)F)cc3)cn2CCN2CCCC2)CC1 [Compound 269]
25 | 6.44 | 6.00 | Nc1cc(N2CCC(c3nc(-c4ccc(C(F)(F)F)cc4)cn3CCN3CCCC3)CC2)ncn1 [Compound 270]
26 | 7.92 | 6.74 | CCc1c(N)ncnc1N1CCC(c2nc(-c3ccc(C(F)(F)F)cc3)cn2CCN2CCCC2)CC1 [Compound 271]
27 | 8.46 | 8.02 | CCc1c(N)ncnc1N1CCC(c2nc(-c3cccc(C(F)(F)F)c3)cn2CCN2CCCC2)CC1 [Compound 272]
28 | 8.13 | 6.72 | CCc1c(N)ncnc1N1CCC(c2nc(-c3ccc(Cl)cc3)cn2CCN2CCCC2)CC1 [Compound 273]
29 | 8.82 | 7.92 | CCc1c(N)ncnc1N1CCC(c2nc(-c3cccc(Cl)c3)cn2CCN2CCCC2)CC1 [Compound 274]
30 | 8.55 | 6.37 | CCc1c(N)ncnc1N1CCC(c2nc(-c3ccc(F)c(C(F)(F)F)c3)cn2CCN2CCC(F)(F)C2)CC1 [Compound 275]
31 | 8.55 | 8.03 | CCc1c(N)ncnc1N1CCC(c2nc(-c3ccc(F)c(C(F)(F)F)c3)cn2CCN2CCCCC2)CC1 [Compound 276]
32 | 8.49 | 7.74 | CCc1c(N)ncnc1N1CCC(c2nc(-c3cccc(C(F)(F)F)c3)cn2CCN2CCC2)CC1 [Compound 277]
33 | 8.34 | 7.10 | CCc1c(N)ncnc1N1CCC(c2nc(-c3cccc(F)c3)cn2CCN2CCC2)CC1 [Compound 278]
34 | 8.62 | 7.80 | CCc1c(N)ncnc1N1CCC(c2nc(-c3cccc(Cl)c3)cn2CCN2CCC2)CC1 [Compound 279]
35 | 8.22 | 8.14 | Nc1ncnc(N2CCC(c3nc(-c4ccc(C(F)(F)F)c(F)c4)cn3CCN3CCC3)CC2)c1C1CCC1 [Compound 280]
36 | 8.41 | 8.04 | CCc1c(N)ncnc1N1CCC(c2nc(-c3ccc(F)c(Cl)c3)cn2CCN2CCC2)CC1 [Compound 281]
37 | 8.42 | 7.62 | CCc1c(N)ncnc1N1CCC(c2nc(-c3ccc(F)c(F)c3)cn2CCN2CCC2)CC1 [Compound 282]
38 | 8.85 | 8.57 | Nc1ncnc(N2CCC(c3nc(-c4ccc(F)c(C(F)(F)F)c4)cn3CCN3CCC3)CC2)c1[N+](=O)[O-] [Compound 283]
39 | 7.97 | 7.29 | Nc1ncnc(N2CCC(c3nc(-c4ccc(F)c(C(F)(F)F)c4)cn3CCN3CCC3)CC2)c1N [Compound 284]
40 | 9.00 | 8.85 | Nc1ncnc(N2CCC(c3nc(-c4ccc(F)c(C(F)(F)F)c4)cn3CCN3CCC3)CC2)c1C=O [Compound 285]

Row | pIC50 (P70S6K (T412E mutant)) | pIC50 (His-AKT (Full Length)) | Structure (SMILES)
41 | 6.87 | 6.14 | Nc1ncnc(N2CCC(c3nc(-c4ccc(F)c(C(F)(F)F)c4)cn3CCN3CCCC3)CC2)c1C(=O)O [Compound 286]
42 | 9.22 | 9.00 | Nc1ncnc(N2CCC(c3nc(-c4ccc(F)c(C(F)(F)F)c4)cn3CCN3CCCC3)CC2)c1C=O [Compound 287]
43 | 7.68 | 6.72 | CC(=O)Nc1c(N)ncnc1N1CCC(c2nc(-c3ccc(F)c(C(F)(F)F)c3)cn2CCN2CCC2)CC1 [Compound 288]
44 | 8.89 | 8.70 | CC(C)Oc1c(N)ncnc1N1CCC(c2nc(-c3ccc(F)c(Cl)c3)cn2CCN2CCCC2)CC1 [Compound 290]
45 | 8.59 | 8.10 | CCOc1c(N)ncnc1N1CCC(c2nc(-c3ccc(F)c(C(F)(F)F)c3)cn2CCN(C)C)CC1 [Compound 291]
46 | 8.47 | 8.12 | CC(C)Oc1c(N)ncnc1N1CCC(c2nc(-c3ccc(F)c(C(F)(F)F)c3)cn2CCN(C)C)CC1 [Compound 292]
47 | 9.00 | 8.77 | CCOc1c(N)ncnc1N1CCC(c2nc(-c3ccc(F)c(C)c3)cn2CCN(C)C)CC1 [Compound 293]
48 | 8.89 | 8.72 | Cc1cc(-c2cn(CCN(C)C)c(C3CCN(c4ncnc(N)c4OC(C)C)CC3)n2)ccc1F [Compound 294]
49 | 8.39 | 7.64 | CCc1c(N)ncnc1N1CCC(c2nc(-c3ccc(F)c(C)c3)cn2CCN(C)C)CC1 [Compound 295]
50 | 8.80 | 8.59 | CCc1c(N)ncnc1N1CCC(c2nc(-c3ccc(F)c(C)c3)cn2CCN(CC)CC)CC1 [Compound 296]
51 | 8.41 | 8.18 | CCc1c(N)ncnc1N1CCC(c2nc(-c3ccc(F)c(C)c3)cn2CCN2CCCC2)CC1 [Compound 297]
52 | 8.17 | 8.18 | CCOc1c(N)ncnc1N1CCC(c2nc(-c3ccc(F)c(C)c3)cn2CCN2CCCC2)CC1 [Compound 298]
53 | 8.00 | 8.05 | Cc1cc(-c2cn(CCN3CCCC3)c(C3CCN(c4ncnc(N)c4OC(C)C)CC3)n2)ccc1F [Compound 299]
54 | 8.51 | 8.05 | CCc1c(N)ncnc1N1CCC(c2nc(-c3ccc(F)c(C)c3)cn2CCN(CC)C(C)C)CC1 [Compound 300]
55 | 7.92 | 8.20 | CCN(CCn1cc(-c2ccc(F)c(C)c2)nc1C1CCN(c2ncnc(N)c2OC(C)C)CC1)C(C)C [Compound 302]
56 | 8.62 | 9.10 | CCOc1c(N)ncnc1N1CCC(c2nc(-c3ccc(F)c(C)c3)cn2CCN(CC)CC)CC1 [Compound 303]
57 | 8.34 | 8.59 | CCN(CC)CCn1cc(-c2ccc(F)c(C)c2)nc1C1CCN(c2ncnc(N)c2OC(C)C)CC1 [Compound 304]
58 | 8.72 | 8.49 | N#Cc1c(N)ncnc1N1CCC(c2nc(-c3ccc(F)c(C(F)(F)F)c3)cn2CCN2CCCC2)CC1 [Compound 305]
59 | 8.70 | 8.12 | N#Cc1c(N)ncnc1N1CCC(c2nc(-c3ccc(F)c(F)c3)cn2CCN2CCCC2)CC1 [Compound 306, 4-amino-6{4-(3,4-difluorophenyl-1-2-(pyrrolidin-1-yl-ethyl)-1H-imidazol-2-yl]-piperidin-1-yl}-pyrimidin-5-carbonitrile]
60 | 9.10 | 8.82 | N#Cc1c(N)ncnc1N1CCC(c2nc(-c3ccc(F)c(Cl)c3)cn2CCN2CCCC2)CC1 [Compound 307]
